In brackets after ≈: the same amount, converted by molar mass. Non-standard residues stand in square brackets, D forms with d. Residues, ends and D or L forms follow the SMILES beside them. *: point of attachment. NHPhenethyl = c1ccc(CCN*)cc1; β3hV = CC(C)[C@H](N)CC(=O)O; Cbz = O=C(OCc1ccccc1)*
Key:
[1] = tested on: S. aureus ATCC 43300; assay: MIC/MBC broth microdilution, S. aureus; assay type: cell-based, Staphylococcus aureus; conditions: S. aureus
[2] = tested on: S. pyogenes ATCC 19615; assay: MIC/MBC broth microdilution, S. pyogenes; assay type: cell-based, Streptococcus pyogenes; conditions: S. pyogenes
Procedure: (§1) S. aureus (ATCC 29213),S. pyogenes (ATCC 19615),Streptococcus agalactiae (ATCC 27956),Escherichia coli (ATCC 25922),Proteus vulgaris (ATCC 6896),K. pneumoniae (ATCC 700603) andP. aeruginosa (ATCC 10145) reference strains, as well asStaphylococcus cohnii, Enterococcus faecalis, Staphylococcus schleiferi, Staphylococcus intermedius and Streptococcus mutans clinical isolates, were used to test the antibacterial activity of the peptidomimetics. Bacteria were aerobically cultured for 18 h at 37 °C in plates with sterilized brain heart infusion (BHI) broth (Sigma-Aldrich, USA) media mixed with bacteriological agar (Sigma-Aldrich, USA) using the streak plate method. After 18 h, BHI broth was inoculated to 0.5 on the McFarland scale and diluted to approximately 10^5 CFU/mL. To achieve a final stock concentration of 1024 μg/mL, the peptidomimetics were dissolved in sterile water, and 5–10% of absolute ethanol or dimethyl sulfoxide (DMSO) was added. The antibacterial activities were determined by using the standard broth microdilution method of the National Committee for Clinical Laboratory Standards. The process involved adding serially diluted peptidomimetics to consecutive wells of a 96-well microtiter plate (Brand, Germany) holding media with microorganisms. The inoculated plates treated with peptides were then placed in an incubator at 37 °C for 18 h. The MIC value was determined as the lowest concentration of peptidomimetic at which there was no obvious growth (equal or more than 90% of the untreated sample). […] The lowest concentration yielding growth in no more than 3 colonies, corresponding to at least a 99.9% kill rate, was taken as MBC. Each biological replicate included control wells with the addition of water, DMSO, and ethanol as respective solvent controls. All experiments were conducted with consistent adherence to growth and sterility controls and were performed at least in technical triplicate with three biological repeats.

[3] = tested on: S. cohnii c.i.; assay: MIC/MBC broth microdilution, S. cohnii; assay type: cell-based, Staphylococcus cohnii
Procedure: as §1

[4] = tested on: E. faecalis c.i.; assay: MIC/MBC broth microdilution, E. faecalis; assay type: cell-based, Enterococcus faecalis
Procedure: as §1

[5] = tested on: S. schleiferi c.i.; assay: MIC/MBC broth microdilution, S. schleiferi; assay type: cell-based, Staphylococcus schleiferi
Procedure: as §1

[6] = tested on: S. agalactiae ATCC 27956; assay: MIC/MBC broth microdilution, S. agalactiae; assay type: cell-based, Streptococcus agalactiae; conditions: S. agalactiae, water additive EtOH
Procedure: as §1

[7] = tested on: S. mutans c.i.; assay: MIC/MBC broth microdilution, S. mutans; assay type: cell-based, Streptococcus mutans
Procedure: as §1

[8] = tested on: E. coli ATCC 25922; assay: MIC/MBC broth microdilution, E. coli; assay type: cell-based, Escherichia coli
Procedure: as §1

[9] = tested on: P. vulgaris ATCC 6896; assay: MIC/MBC broth microdilution, P. vulgaris; assay type: cell-based, Proteus vulgaris
Procedure: as §1

[10] = tested on: K. pneumoniae ATCC 700603; assay: MIC/MBC broth microdilution, K. pneumoniae; assay type: cell-based
Procedure: as §1

[11] = tested on: P. aeruginosa ATCC 10145; assay: MIC/MBC broth microdilution, P. aeruginosa; assay type: cell-based
Procedure: as §1

[12] = tested on: immortalized human keratinocytes (HaCaT); assay: LDH cytotoxicity test, keratinocytes; assay type: cell-based; conditions: 48 h, 50, 100 and 150 μg/mL, vs 1% Triton X-100
Procedure: (§2) In our study, we used two distinct cell types: immortalized human HaCaT keratinocytes (DKFZ, Heidelberg, Germany) and a human dermal fibroblast cell line (46BR.1N). […] Cultures were maintained in a humidified atmosphere with 5% CO2 at 37 °C in 25 cm^2 culture flasks with the medium replenished every 2 days. The condition of the cells was monitored using optical microscopy.
(§3) Cell death in immortalized human keratinocytes (HaCaT) and fibroblasts (46BR.1N) was measured by quantifying the lactate dehydrogenase (LDH) activity using a commercial kit (Roche, Switzerland). Cells were seeded in 96-well plates at a density of 5000 cells per well in DMEM high glucose medium supplemented with 10% FBS. After 24 h of incubation, the medium was replaced with serum-free medium containing various concentrations of peptidomimetics (50, 100, and 150 μg/mL). After 48 h, supernatants were collected for LDH analysis. Plate readings were taken spectrophotometrically using a 450 nm wavelength. Cell death measurements were normalized to an untreated control (0%), with 1% Triton X-100 detergent used as a positive control to induce maximum LDH release, indicating maximal cytotoxicity. Statistical significance was determined with a Mann–Whitney U test with a statistical significance p ≤ 0.05. Analysis was performed with Statistica software (Krakow, Poland) and graphs were prepared in GraphPad Prism (Boston, USA).

[13] = tested on: fibroblasts (46BR.1N); assay: LDH cytotoxicity test, fibroblasts; assay type: cell-based; conditions: 48 h, 50, 100 and 150 μg/mL, vs 1% Triton X-100
Procedure: as §2, §3

[14] = tested on: immortalized human HaCaT keratinocytes; assay: XTT cell proliferation assay, keratinocytes; assay type: cell-based; conditions: for effect on proliferation, in words: XTT, 48 and 72 h, 0.01–150 μg/mL
Procedure: (§4) In our study, we used two distinct cell types: immortalized human HaCaT keratinocytes (DKFZ, Heidelberg, Germany) and a human dermal fibroblast cell line (46BR.1N). […] Cultures were maintained in a humidified atmosphere with 5% CO2 at 37 °C in 25 cm^2 culture flasks with the medium replenished every 2 days. The condition of the cells was monitored using optical microscopy. […] After 24 h of incubation, the medium was replaced with serum-free HG-DMEM containing appropriate concentrations of peptidomimetics. All solutions used in the experiments were prepared with double-distilled water or with the addition of ethanol under sterile conditions to ensure compatibility with the conditions of the bacteriological assay. For 72 h of incubation, half of the medium was replaced with fresh medium after 48 h, and cells were stimulated with peptides for a second time. The XTT cell proliferation assay was then performed according to the manufacturer’s instructions (Roche, Switzerland). Cells were treated with the peptides for either 48 or 72 h, followed by the addition of XTT reagent, and the plates were then incubated at 37 °C in a 5% CO2 environment for 4 h. Plate readings were taken using a standard plate reader at a wavelength of 490 nm (OD = 490 nm). […] Statistical significance was determined with a Mann–Whitney U test with statistical significance p ≤ 0.05. Analysis was performed with Statistica software, and graphs were prepared in GraphPad Prism.

[15] = tested on: human dermal fibroblast cell line (46BR.1N); assay: XTT cell proliferation assay, fibroblasts; assay type: cell-based; conditions: for effect on proliferation, in words: XTT, 48 and 72 h, 0.01–150 μg/mL
Procedure: as §4

[16] = up to 150 μg/mL, A-193 and A-179 after 48 h

Molecule `CC(C)C[C@H](NC(=O)[C@H](CCCNC(=N)N)NC(=O)OCc1ccccc1)C(=O)N[C@H](CC(=O)NCCc1ccccc1)C(C)C` [Compound A-152] (Cbz-Arg-Leu-[β3hV]-NHPhenethyl) has an MBC ([1]; H2O) of 256 µg/mL (≈ 401 µM), an MBC ([1]; water additive DMSO) of 512 µg/mL (≈ 803 µM) and an MIC ([1]; water additive DMSO) of 512 µg/mL (≈ 803 µM). For the same molecule, the MBC ([2]; H2O) was 256 µg/mL (≈ 401 µM), the MBC ([2]; water additive DMSO) was 256 µg/mL (≈ 401 µM) and the MBC ([2]; water additive EtOH) was 126 µg/mL (≈ 198 µM). It also gave an MBC ([3]; water additive DMSO) of 512 µg/mL (≈ 803 µM), an MBC ([3]; water additive EtOH) of 512 µg/mL (≈ 803 µM) and an MBC ([4]; water additive DMSO) of over 512 µg/mL. For the same molecule, the MIC ([4]; water additive DMSO) was 512 µg/mL (≈ 803 µM), the MBC ([4]; water additive EtOH) was 512 µg/mL (≈ 803 µM) and the MIC ([4]; water additive EtOH) was 512 µg/mL (≈ 803 µM). For the same molecule, the MIC ([5]; water additive DMSO) was over 512 µg/mL, the MIC ([5]; water additive EtOH) was over 512 µg/mL and the MBC [6] was 256 µg/mL (≈ 401 µM). The MIC ([7]; water additive DMSO) was over 512 µg/mL, the MIC ([7]; water additive EtOH) was over 512 µg/mL and the MIC ([8]; water additive DMSO) was over 512 µg/mL. The MIC ([8]; water additive EtOH) was over 512 µg/mL, the MIC ([9]; water additive DMSO) was over 512 µg/mL and the MIC ([9]; water additive EtOH) was over 512 µg/mL. For the same molecule, the MIC ([10]; water additive DMSO) was over 512 µg/mL, the MIC ([10]; water additive EtOH) was over 512 µg/mL and the MIC ([11]; water additive DMSO) was over 512 µg/mL. The MIC ([11]; water additive EtOH) was over 512 µg/mL, the “cytotoxicity (LDH)” value [12] was at most 50% and the “cytotoxicity (LDH)” value [13] was at most 50%. For the same molecule, the “effect on proliferation, in words” value [14] was “pro-proliferating effect at lower concentrations followed by an antiproliferative effect at higher concentrations” and the “effect on proliferation, in words” value [15] was “pro-proliferating effect at lower concentrations followed by an antiproliferative effect at higher concentrations”.

In the case of `CC(C)[C@@H](CNC(=O)C(=Cc1ccccc1)c1ccccc1)NC(=O)[C@H](Cc1c[nH]cn1)NC(=O)[C@H](CCCNC(=N)N)NC(=O)OCc1ccccc1` [Compound A-176], the MIC ([1]; H2O) is reported as 32 µg/mL (≈ 43.5 µM), the MIC ([1]; water additive DMSO) is reported as 32 µg/mL (≈ 43.5 µM) and the MIC ([1]; water additive EtOH) is reported as 32 µg/mL (≈ 43.5 µM). The MBC ([2]; H2O) was 32 µg/mL (≈ 43.5 µM), the MIC ([2]; H2O) was 16 µg/mL (≈ 21.7 µM) and the MIC ([2]; water additive DMSO) was 16 µg/mL (≈ 21.7 µM). The MBC ([2]; water additive EtOH) was 32 µg/mL (≈ 43.5 µM), the MIC ([2]; water additive EtOH) was 16 µg/mL (≈ 21.7 µM) and the MBC ([4]; H2O) was 512 µg/mL (≈ 696 µM). The MIC ([4]; H2O) was 512 µg/mL (≈ 696 µM), the MIC ([4]; water additive DMSO) was over 512 µg/mL and the MBC ([4]; water additive EtOH) was 512 µg/mL (≈ 696 µM). It also gave an MIC ([4]; water additive EtOH) of 256 µg/mL (≈ 348 µM), an MIC ([5]; H2O) of 16 µg/mL (≈ 21.7 µM) and an MBC ([5]; water additive EtOH) of 32 µg/mL (≈ 43.5 µM). It also gave an MIC ([5]; water additive EtOH) of 16 µg/mL (≈ 21.7 µM), an MIC ([7]; H2O) of 32 µg/mL (≈ 43.5 µM) and an MIC ([7]; water additive EtOH) of 32 µg/mL (≈ 43.5 µM). For the same molecule, the MBC ([8]; H2O) was 256 µg/mL (≈ 348 µM), the MIC ([8]; H2O) was 256 µg/mL (≈ 348 µM) and the MIC ([8]; water additive DMSO) was over 512 µg/mL. For the same molecule, the MIC ([8]; water additive EtOH) was 512 µg/mL (≈ 696 µM), the MIC ([9]; H2O) was over 512 µg/mL and the MIC ([9]; water additive DMSO) was over 512 µg/mL. For the same molecule, the MIC ([9]; water additive EtOH) was over 512 µg/mL, the MIC ([10]; H2O) was over 512 µg/mL and the MIC ([10]; water additive DMSO) was over 512 µg/mL. It also gave an MIC ([10]; water additive EtOH) of over 512 µg/mL, an MIC ([11]; H2O) of 256 µg/mL (≈ 348 µM) and an MBC ([11]; water additive DMSO) of 256 µg/mL (≈ 348 µM). It also gave an MIC ([11]; water additive DMSO) of 256 µg/mL (≈ 348 µM), an MBC ([11]; water additive EtOH) of 256 µg/mL (≈ 348 µM) and an MIC ([11]; water additive EtOH) of 256 µg/mL (≈ 348 µM). The “cytotoxicity (LDH)” value [12] was “exceeding 50%”, the “effect on proliferation, in words” value [14] was “negative impact” and the “antiproliferative effect (decrease vs control)” value [14, 16] was “up to 50%”. The “effect on proliferation, in words” value [15] was “negative impact” and the “antiproliferative effect (decrease vs control)” value [15, 16] was “up to 50%”.

Source: paper PMC12332667, “Role of Structural Modifications in Peptidomimetic Compounds as Potential Antimicrobial Agents against Staphylococcus aureus and Streptococcus pyogenes: Balancing Bioavailability, Safety, and Antimicrobial Activity” (ACS Omega, 2025)
